The series relates to male rabbits (New Zealand White). As to the kind of experiment: Ocular tolerability (Draize) after repeated instillation. The series is classed as in vivo, rabbit. Conditions: for Conjunctiva Lachrymation / Conjunctiva Reddening / Conjunctiva Swelling / Cornea Area of the cornea affected by opacity / Cornea Opacity / Iris: Draize score; for Conjunctiva Lachrymation / Conjunctiva Reddening / Conjunctiva Swelling / Cornea Area of the cornea affected by opacity / Cornea Opacity / Iris / Total Score: rabbit eye, 0.1 ml aqueous solution (corresponding to 1.79% by weight of ibopamine, pH 7.0) three times a day for fifteen days; for Total Score: sum of Draize scores; for local tolerability: compared with the hydrochloride, statement in words. On the procedure: Two aqueous solutions were used.
The first contained 2% by weight of ibopamine hydrochloride (corresponding to 1.79% by weight of ibopamine) buffered to pH 7.0.
The second contained 2.46% by weight of ibopamine maleate (corresponding to 1.79% by weight of ibopamine) buffered to pH 7.0.
12 male rabbits (New Zealand White) with an average weight of 2 kg and an average age of ten months were used, divided into two groups of six rabbits each. The first group was treated with 0.1 ml of the first test solution three times a day for fifteen days. The second group was treated with 0.1 ml of the second test solution three times a day for fifteen days.
The tolerability was evaluated according to J. Draize et al., Pharmacol. Exp. Ther., 83, 377-390 (1944).

Where a name gives a salt, the structure may show the parent alone.

Data on 2 compounds can be found in patent US20080242724A1, “Ibopamine Maleate, Method for Preparing it and Pharmaceutical Compositions Containing It” (AZIENDE CHIM. RIUN. ANG. FRANC. A.C.R.A.F. S.P.A., priority 2004, published 2008).

Take `CNCCc1ccc(OC(=O)C(C)C)c(OC(=O)C(C)C)c1` [Ibopamine hydrochloride, ibopamine hydrochloride, reference compound]: the “Conjunctiva Lachrymation” value is given as 2, the “Conjunctiva Reddening” value came out at 1, the “Conjunctiva Swelling” value is 1 and the “Cornea Area of the cornea affected by opacity” value came out at 2. The “Cornea Opacity” value amounted to 1, the Iris stood at 1 and the “Total Score” value is recorded as 8.
Consider ibopamine maleate (1:1), for which the “Conjunctiva Lachrymation” value stood at 1, the “Conjunctiva Reddening” value was 1, the “Conjunctiva Swelling” value came to 0 and the “Cornea Area of the cornea affected by opacity” value is given as 1. The “Cornea Opacity” value is reported as 0, the Iris was determined as 0 and the “Total Score” value worked out at 3. The local tolerability result (listed as ibopamine maleate) is “better local tolerability”. The local tolerability result (listed as maleate) was “better local tolerability than the hydrochloride”.
